Experimental data reported in ChEMBL document CHEMBL1201862, “PubChem BioAssay data set” (2004).
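Grown in 96-well plates, cells were treated for 48 hours with each compound at five concentrations. Insufficient inhibition: endpoint recorded as highest concentration tested. Abbreviation: GI50, concentration required for 50% inhibition of growth.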 Activity calls are given as the source filed them. Rule as the data show it: active = GI50 up to about 1.1 µM and inactive = higher.

Legend:
Test in all cases: growth of human tumour cells (NCI), 48 h
T47D = test system: T47D
LOX IMVI = test system: LOX IMVI
SW-620 = test system: SW-620
UO-31 = test system: UO-31
SNB-19 = test system: SNB-19
MDA-MB-231 = test system: MDA-MB-231
NCI-H460 = test system: NCI-H460
UACC-257 = test system: UACC-257
Hs-578T = test system: Hs-578T
HOP-62 = test system: HOP-62
MDA-MB-435 = test system: MDA-MB-435
ACHN = test system: ACHN
SF-539 = test system: SF-539
OVCAR-3 = test system: OVCAR-3
EKVX = test system: EKVX
SR = test system: SR
SNB-75 = test system: SNB-75
NCI-H23 = test system: NCI-H23
HL-60 = test system: HL-60
SK-MEL-28 = test system: SK-MEL-28
RPMI-8226 = test system: RPMI-8226
SK-MEL-5 = test system: SK-MEL-5
CAKI-1 = test system: CAKI-1
HT-29 = test system: HT-29
U-251 = test system: U-251
CCRF-CEM = test system: CCRF-CEM
M14 = test system: M14
NCI-H522 = test system: NCI-H522
HCT-116 = test system: HCT-116
RXF 393 = test system: RXF 393
Malme-3M = test system: Malme-3M
OVCAR-8 = test system: OVCAR-8
HOP-92 = test system: HOP-92
KM12 = test system: KM12
SK-OV-3 = test system: SK-OV-3
SF-268 = test system: SF-268
K562 = test system: K562
786-0 = test system: 786-0
MOLT-4 = test system: MOLT-4
SN12C = test system: SN12C
PC-3 = test system: PC-3
DU-145 = test system: DU-145
SK-MEL-2 = test system: SK-MEL-2
MCF7 = test system: MCF7
NCI-H226 = test system: NCI-H226
COLO 205 = test system: COLO 205
SF-295 = test system: SF-295
OVCAR-5 = test system: OVCAR-5
A549 = test system: A549
TK-10 = test system: TK-10
UACC-62 = test system: UACC-62
IGROV-1 = test system: IGROV-1
BT-549 = test system: BT-549
A498 = test system: A498
HCC 2998 = test system: HCC 2998
HCT-15 = test system: HCT-15
MDA-N = test system: MDA-N

Compound: CC1C(c2ccccc2O)c2cc3c(cc2OC1N1CCCC1)OCO3 (configuration not stated)
- GI50 (T47D): 34.7 µM (inactive)
- GI50 (LOX IMVI): 18.4 µM (inactive)
- GI50 (SW-620): 20.8 µM (inactive)
- GI50 (UO-31): 31.6 µM (inactive)
- GI50 (SNB-19): 49.4 µM (inactive)
- GI50 (MDA-MB-231): 27.8 µM (inactive)
- GI50 (NCI-H460): 16.1 µM (inactive)
- GI50 (UACC-257): 25.1 µM (inactive)
- GI50 (Hs-578T): 18.2 µM (inactive)
- GI50 (HOP-62): 21.4 µM (inactive)
- GI50 (MDA-MB-435): 26.9 µM (inactive)
- GI50 (ACHN): 32.7 µM (inactive)
- GI50 (SF-539): 24.9 µM (inactive)
- GI50 (OVCAR-3): 20.9 µM (inactive)
- GI50 (EKVX): 41.9 µM (inactive)
- GI50 (SR): 18.8 µM (inactive)
- GI50 (SNB-75): 22.2 µM (inactive)
- GI50 (NCI-H23): 39 µM (inactive)
- GI50 (HL-60): 19.2 µM (inactive)
- GI50 (SK-MEL-28): 20.4 µM (inactive)
- GI50 (RPMI-8226): 24.5 µM (inactive)
- GI50 (SK-MEL-5): 39.2 µM (inactive)
- GI50 (CAKI-1): 34.7 µM (inactive)
- GI50 (HT-29): 17.1 µM (inactive)
- GI50 (U-251): 31.7 µM (inactive)
- GI50 (CCRF-CEM): 23.8 µM (inactive)
- GI50 (M14): 17.9 µM (inactive)
- GI50 (NCI-H522): 23.2 µM (inactive)
- GI50 (HCT-116): 19.5 µM (inactive)
- GI50 (RXF 393): 13.7 µM (inactive)
- GI50 (Malme-3M): 25.3 µM (inactive)
- GI50 (OVCAR-8): 11.5 µM (inactive)
- GI50 (HOP-92): 19.8 µM (inactive)
- GI50 (KM12): 33.5 µM (inactive)
- GI50 (SK-OV-3): 88.7 µM (inactive)
- GI50 (SF-268): 33.3 µM (inactive)
- GI50 (K562): 20 µM (inactive)
- GI50 (786-0): 20 µM (inactive)
- GI50 (MOLT-4): 19.6 µM (inactive)
- GI50 (SN12C): 19.4 µM (inactive)
- GI50 (PC-3): 28.1 µM (inactive)
- GI50 (DU-145): 45.1 µM (inactive)
- GI50 (SK-MEL-2): 23.4 µM (inactive)
- GI50 (MCF7): 26.5 µM (inactive)
- GI50 (NCI-H226): 27.9 µM (inactive)
- GI50 (COLO 205): 23.3 µM (inactive)
- GI50 (SF-295): 27.2 µM (inactive)
- GI50 (OVCAR-5): 32.2 µM (inactive)
- GI50 (A549): 31 µM (inactive)
- GI50 (TK-10): 39.2 µM (inactive)
- GI50 (UACC-62): 35.5 µM (inactive)
- GI50 (IGROV-1): 39.3 µM (inactive)
- GI50 (BT-549): 32.3 µM (inactive)
- GI50 (A498): 23.2 µM (inactive)
- GI50 (HCC 2998): 40.6 µM (inactive)
- GI50 (HCT-15): 19.8 µM
- GI50 (MDA-N): 18.8 µM (inactive)
